The record followed here is the Bradley open melting point set (2014).

`CCOC(=O)c1[nH]c(C)c(C(C)=O)c1C` [3-acetyl-2,4-dimethyl-5-(ethoxycarbonyl)pyrrole] displayed a melting point of 142 °C.

Take `C=COC(C)=O` [vinyl acetate]: the melting point was -100 °C.

For `CC(=O)OC1COC(C#N)C(OC(C)=O)C1OC(C)=O` (stereo not given), the melting point is 134 °C.

`O=Cc1ccnc(Cl)c1` [2-chloropyridine-4-carboxaldehyde] came in with a melting point of 48 °C.

`CCOC(N)=O` [Ethyl carbamate] yielded a melting point of 49 °C.

`Cc1ccc(C(=O)c2ccccc2)cc1` [4-methylbenzophenone] had a melting point of 55 °C.

Compound `Cc1cc(CCl)c(C)cc1CCl` [2,5-bis(chloromethyl)-p-xylene] had a melting point of 132 °C.

Compound `C1CCC(NC2CCCCC2)CC1` [dicyclohexylamine] returned a melting point of -2 °C.

`C=C[C@H]1C[N@@]2CC[C@H]1C[C@H]2[C@H](O)c1ccnc2ccc(OC)cc12` [quinine] returned a melting point of 177 °C.

`CCCCCCCC(C)O` (stereo not given) [2-nonanol]: the melting point is -35 °C.

The compound `CC(CN1c2ccccc2Sc2ccccc21)N(C)C` (stereo not given) [promethazine] gave a melting point of 60 °C.

`COc1ccc2c(C)cc(=O)[nH]c2c1` [7-methoxy-4-methyl-2(1h)-quinolinone] returned a melting point of 206 °C.

The compound `O=C(O)c1ccc([N+](=O)[O-])cc1` [4-nitrobenzoic acid] came in with a melting point of 242 °C.

The compound `ClCCl` [dichloromethane] came in with a melting point of -95 °C.

The compound `Cc1c(N(C)C)c(=O)n(-c2ccccc2)n1C` gave a melting point of 108 °C.

Compound `CC(C(=O)O)c1cccc(C(=O)c2ccccc2)c1` (stereo not given) [Ketoprofen] had a melting point of 93 °C.

In turn, `CCN1CCOCC1` [4-ethylmorpholine] yielded a melting point of -63 °C.

Consider `CC(=O)N1CCN(c2ccc(OCC3COC(Cn4ccnc4)(c4ccc(Cl)cc4Cl)O3)cc2)CC1` (stereo not given), for which the melting point was 146 °C.

`O=C(O)c1ccc(Cl)s1` [5-chlorothiophene-2-carboxylic acid]: the melting point turned out to be 151 °C.

As to `Oc1cc(Cl)cc(Cl)c1` [3,5-dichlorophenol], the melting point is 68 °C.

Regarding `COc1ccccc1-c1ccc(/C=C/C(=O)c2ccco2)o1`, the melting point stood at 97 °C.

`CC(=O)Nc1ccc(O)cc1` [4-acetamidophenol] displayed a melting point of 169 °C.

`Nc1ccc(S(=O)(=O)Nc2nccs2)cc1` [sulfathiazole]: the melting point was 202 °C.

`O=C(O)CCCc1ccc2ccc3cccc4ccc1c2c34` [1-pyrenebutyric acid]: the melting point turned out to be 185 °C.

The compound `CC[C@@H](C(=O)[C@@H](C)[C@@H](O)[C@H](C)[C@@H]1O[C@@H]([C@@H](CC)C(=O)O)CC[C@@H]1C)[C@H]1O[C@]2(C=C[C@@H](O)[C@]3(CC[C@@](C)([C@H]4CC[C@](O)(CC)[C@H](C)O4)O3)O2)[C@H](C)C[C@@H]1C` returned a melting point of 113 °C.

Compound `CCCCCCCCCCOc1ccc(C(=O)O)cc1` [4-n-decyloxybenzoic acid] showed a melting point of 97 °C.

As to `COC(=O)c1ccccc1` [Methyl benzoate], the melting point was -12 °C.

The compound `O=C(O)c1ccc(C(F)(F)F)nc1Cl` [2-chloro-6-(trifluoromethyl)nicotinic acid] returned a melting point of 119 °C.

With `Cc1cccc(C)c1O` [2,6-dimethylphenol], the melting point came out at 49 °C.

Regarding `O=C1NC(=O)c2cc([N+](=O)[O-])ccc21` [5-Nitro-1H-isoindole-1,3(2H)-dione], the melting point is 181 °C.

Take `CCCCCCCCCCCC(N)=O` [Lauramide]: the melting point was 99 °C.

`c1cc(N2CCNCC2)ccn1` [1-(4-pyridyl)piperazine] gave a melting point of 139 °C.

For `Nc1cc(Cl)ccc1Cl` [2,5-dichloroaniline], the melting point was determined as 50 °C.

With `CC(C)(c1ccc(O)cc1)c1ccc(O)cc1` [bisphenol a], the melting point is 156 °C.

`O=[N+]([O-])c1ccc(N/N=C2/Cc3c2ccc2ccccc32)c([N+](=O)[O-])c1` yielded a melting point of 275 °C.

Compound `C[C@]12CC[C@@H]3c4ccc(O)cc4CC[C@H]3[C@@H]1CCC2=O` [estrone] yielded a melting point of 255 °C.

In the case of `CCOC(=O)c1ccc(N)cc1` [ethyl 4-aminobenzoate], the melting point stood at 90 °C.

Regarding `C=Cc1cccc([N+](=O)[O-])c1` [m-nitrostyrene], the melting point is -5 °C.

For the compound `NC(=O)NNc1ccccc1` [1-phenylsemicarbazide], the melting point turned out to be 172 °C.

The compound `O=Cc1ccccc1Cl` [o-chlorobenzaldehyde] gave a melting point of 11 °C.

For `SCc1ccc(Cl)cc1` [4-chlorobenzyl mercaptan], the melting point came out at 20 °C.

For `COP(=S)(OC)Oc1cc(Cl)c(Cl)cc1Cl` [Fenchlorphos], the melting point came to 38 °C.

For the compound `CC(C)(C)OC(=O)NCCCC[C@H](NC(=O)OCC1c2ccccc2-c2ccccc21)C(=O)O`, the melting point stood at 132 °C.

For the compound `CCCCC(CC)C(=O)O` (stereo not given) [2-ethylhexanoic acid], the melting point is -59 °C.

As for `COc1cccc(OC)c1OC` [1,2,3-trimethoxybenzene], the melting point was determined as 45 °C.

On to `O=[N+]([O-])c1cc[n+]([O-])c2ccccc12` [4-nitroquinoline n-oxide], for which the melting point is 155 °C.

In the case of `Nc1ccccc1-c1ccccc1` [Biphenyl-2-amine], the melting point is 51.5 °C.

For `O=C(CBr)c1ccccc1` [2-bromoacetophenone], the melting point worked out at 50 °C.

For the compound `O=C(O)c1cc(F)c(F)c(F)c1F` [2,3,4,5-tetrafluorobenzoic acid], the melting point came to 86 °C.

Regarding `N[C@@H](CCC(=O)O)C(=O)O` [L-Glutamic Acid], the melting point is 224 °C.

For `C=Cc1cccc(O)c1` [m-vinyl_phenol], the melting point came to 1 °C.

Compound `COc1cccc(O)c1` [3-methoxyphenol] returned a melting point of -18 °C.

As to `Cc1ccc(N)c([N+](=O)[O-])c1` [4-methyl-2-nitroaniline], the melting point amounted to 117 °C.

`C[C@]12CCC(=O)C=C1CC[C@@H]1[C@@H]2C(O)C[C@@]2(C)[C@H]1CC[C@]2(O)C(=O)CO` (stereo not given in full) [11,17,21-Trihydroxypregn-4-ene-3,20-dione] came in with a melting point of 223 °C.

Turning to `N#CCCCCC#N` [adiponitrile], the melting point is 2 °C.

Regarding `COC(=O)c1sccc1Cl` [methyl 3-chlorothiophene-2-carboxylate], the melting point was determined as 38 °C.

The compound `N#CC(Cl)(Cl)Cl` [Trichloroacetonitrile] had a melting point of -42 °C.

In turn, `CCCCCCOC(C)=O` [hexyl_acetate] displayed a melting point of -80 °C.

Turning to `CCc1nnc2cc(-c3ccccc3)[nH]n12` [3-ethyl-6-phenyl-5H-pyrazolo[5,1-c][1,2,4]triazole], the melting point was found to be 189 °C.

Turning to `O=C(O)c1cccc([N+](=O)[O-])c1` [3-nitrobenzoic acid], the melting point was determined as 142 °C.

`COC(=O)c1ccc([N+](=O)[O-])cc1` [methyl_4-nitrobenzoate] had a melting point of 96 °C.

`O=c1ccn([C@@H]2O[C@@H](CO)[C@H](O)[C@H]2O)c(=O)[nH]1` [Uridine] registered a melting point of 165 °C.

On to `CC(=O)OC1CCCC2=CC(=O)CCC21C` (stereo not given), for which the melting point was found to be 90 °C.

In turn, `OC1CCCC1` [cyclopentanol] returned a melting point of -19 °C.

`Cc1cc(C)c(Br)c(C)c1Br` [2,4-dibromomesitylene] returned a melting point of 60 °C.

As to `COc1ccc(N/N=C(\C#N)c2nc(-c3ccccc3)cs2)cc1`, the melting point amounted to 151 °C.

Turning to `O=C(Cl)C(Cl)(Cl)Cl` [Trichloroacetyl chloride], the melting point is -146 °C.

As to `COc1cc(C(=O)Cl)cc(OC)c1OC` [3,4,5-trimethoxybenzoyl chloride], the melting point worked out at 80 °C.

`C#C[C@]1(O)CC[C@H]2[C@@H]3CCC4=CC(=O)CC[C@@H]4[C@H]3CC[C@@]21CC` [Norgestrel] gave a melting point of 206 °C.

As for `Cc1cc(Cl)c2ccccc2n1` [4-chloro-2-methylquinoline], the melting point amounted to 25 °C.

`O=C(O)CCCCCCCCCCC(=O)O` [Dodecanedioic acid] showed a melting point of 129 °C.

In turn, `c1ccc(C23CCN(CC2)CC3)cc1` [4-phenylquinuclidine] yielded a melting point of 124 °C.

Compound `C[Si](C)(C)Cl` [chlorotrimethylsilane] had a melting point of -58 °C.

In the case of `O=C(/C=C/c1ccc(Br)o1)c1ccco1` [(2E)-3-(5-bromofuran-2-yl)-1-furan-2-ylprop-2-en-1-one], the melting point was 77 °C.

With `CC(C)CCCC(C)C1CCC2C3CCC4CCCCC4(C)C3CCC12C` (stereo not given) [cholestane], the melting point came to 80 °C.

Regarding `[SiH3][SiH3]` [Disilane], the melting point was -133 °C.

Turning to `OB(O)c1cccc2c1oc1ccccc12` [dibenzofuran-4-boronic acid], the melting point stood at 289 °C.

Compound `NS(=O)(=O)c1ccccc1` [benzenesulfonamide] returned a melting point of 153 °C.

`CCN(CC)CCNC(=O)c1cc(Cl)c(N)cc1OC` [metoclopramide] registered a melting point of 147 °C.

The compound `CC12CCCCC1CCC1C2CCC2(C)C1CCC2(O)C#Cc1ccccc1` (stereo not given) [21-phenylpregn-20-yn-17-ol] came in with a melting point of 103 °C.

Turning to `COC(=O)c1cncc(Br)c1` [methyl 5-bromonicotinate], the melting point is 97 °C.

Compound `CCSC(SCC)=C1CCCC(=C(SCC)SCC)C1=C(C#N)C#N` had a melting point of 101 °C.

In the case of `O=S(Cl)Cl` [Thionyl dichloride], the melting point is -104 °C.

As for `C=C(Cl)CCl` [2,3-dichloro-1-propene], the melting point was -83 °C.

For the compound `CN(C)c1ccc(C=O)cc1` [4-(Dimethylamino)benzaldehyde], the melting point stood at 74 °C.

In turn, `COc1cc(Br)c(/C=C/C(=O)O)cc1OC` [2-bromo-4,5-dimethoxycinnamic acid] came in with a melting point of 255 °C.

Compound `CSCC[C@H](N)CO` [L-methioninol] gave a melting point of 32 °C.

`CN(C)c1ccc(/N=N/c2ccccc2C(=O)O)cc1` [methyl red]: the melting point stood at 181 °C.

For `CS(=O)(=O)O` [methanesulfonic acid], the melting point turned out to be 20 °C.

In the case of `NS(=O)(=O)c1cc2c(cc1Cl)NCNS2(=O)=O` [hydrochlorothiazide], the melting point is 270 °C.
